# Source: ChEMBL document CHEMBL5244255, “An insight on medicinal attributes of 1,2,4-triazoles” (Eur J Med Chem, 2020)
# Values joined by “and” are separate entries in the source; they are usually repeats but may differ in a detail not shown here. Identical values can stand only once.
# Columns and labels:
# Candida albicans = experiment: Antifungal activity against Candida albicans Y0109 assessed as fungal growth inhibition; assay type: functional
# Leishmania major [1] = experiment: Antileishmanial activity against promastigotes stage of Leishmania major; assay type: functional, organism-based
# Plasmodium falciparum = experiment: Antimalarial activity against Plasmodium falciparum; assay type: functional, organism-based
# [2] = system: Xanthomonas oryzae pv. oryzae; experiment: Antibacterial activity against Xanthomonas oryzae pv. oryzae assessed as bacterial growth inhibition; assay type: functional, organism-based
# [3] = system: Mycobacterium tuberculosis; experiment: Antimycobacterial activity against Mycobacterium tuberculosis H37Rv measured after 21 days; assay type: functional; settings: 504 h, time 21 day
# [4] = system: Mycobacterium tuberculosis; experiment: Antimycobacterial activity against Mycobacterium tuberculosis H37Rv; assay type: functional
# Staphylococcus aureus = experiment: Antibacterial activity against Staphylococcus aureus assessed as bacterial growth inhibition incubated for 16 hrs; assay type: functional
# [5] = system: Mycobacterium tuberculosis; experiment: Antimycobacterial activity against Mycobacterium tuberculosis H37Rv measured after 8 to 9 days; assay type: functional; settings: time 8-9 day
# [6] = Inhibition of Mycobacterium tuberculosis shikimate dehydrogenase
# Leishmania major [7] = experiment: Potency index, ratio of test compound IC50 to miltefosine IC50 for antileishmanial activity against promastigotes stage of leishmania major; assay type: functional
# Leishmania major [8] = experiment: Potency index, ratio of test compound IC50 to amphotericin B IC50 for antileishmanial activity against promastigotes stage of leishmania major; assay type: functional
# BT-20 = experiment: Anticancer activity against human BT-20 cells assessed as cell growth inhibition incubated for 48 hrs by MTT assay; assay type: functional, cell-based; settings: BT-20, 48 h
# DU-145 = experiment: Anticancer activity against human DU-145 cells assessed as cell growth inhibition incubated for 48 hrs by MTT assay; assay type: functional, cell-based; settings: DU-145, 48 h
# A549 = experiment: Anticancer activity against human A549 cells assessed as cell growth inhibition incubated for 48 hrs by MTT assay; assay type: functional, cell-based; settings: A549, 48 h
# [9] = Anticancer activity against human SK-MEL-128 cells assessed as cell growth inhibition incubated for 48 hrs by MTT assay; assay type: functional, cell-based; settings: SK-MEL-128, 48 h
# [10] = system: Mycobacterium tuberculosis; experiment: Antimycobacterial activity against Mycobacterium tuberculosis H37Rv measured […] by MABA assay; assay type: functional
# [11] = system: Mycobacterium tuberculosis; experiment: Potency index, ratio of test compound MIC to Pyrazinamide MIC for antimycobacterial activity against Mycobacterium tuberculosis H37Rv; assay type: functional
# Trypanosoma cruzi [12] = experiment: Trypanocidal activity against amastigote stage of Trypanosoma cruzi; assay type: functional, organism-based
# Trypanosoma cruzi [13] = experiment: Trypanocidal activity against epimastigote stage of Trypanosoma cruzi; assay type: functional, organism-based
# MDA-MB-231 = experiment: Antiproliferative activity against human MDA-MB-231 cells assessed as cell growth inhibition by MTT assay; assay type: functional, cell-based
smiles,measurement,setting,value
CCCC(=O)OC1CCN(CC(O)(Cn2cncn2)c2ccc(F)cc2F)CC1 (stereo unspecified),MIC80,Candida albicans,9 nM
C[C@@H]1[C@H](O)[C@@H](C)/C=C/C=C/C=C/C=C/C=C/C=C/C=C/[C@H](O[C@@H]2O[C@H](C)[C@@H](O)[C@H](N)[C@@H]2O)C[C@@H]2O[C@](O)(C[C@@H](O)C[C@@H](O)[C@H](O)CC[C@@H](O)C[C@@H](O)CC(=O)O[C@H]1C)C[C@H](O)[C@H]2C(=O)O [AMPHOTERICIN B],IC50,Leishmania major [1],0.0472 µg/mL
Cc1nn(-c2ccccc2)c(-n2cncn2)c1-c1cc(-c2cc[nH]c2)cc2nc3ccccc3n12,IC50,Plasmodium falciparum,0.092 µg/mL and 0.041 µg/mL
CCC(=O)OC1CCN(CC(O)(Cn2cncn2)c2ccc(F)cc2F)CC1 (stereo unspecified),MIC80,Candida albicans,9 nM
O=C(CSc1nnc(C2CCN(c3ncnc4ccccc34)CC2)n1-c1ccccc1)Nc1cccc(F)c1,EC50,[2],34.5 µg/mL
CCCCCCCCCNC(=O)Cc1nnc2c3ccccc3cnn12,MIC,[3],0.5 µg/mL
O=C(OC1CCN(CC(O)(Cn2cncn2)c2ccc(F)cc2F)CC1)C(F)(F)Cl (stereo unspecified),MIC80,Candida albicans,9 nM
OC1(c2nnc(-c3ccncc3)[nH]2)CCCC1,MIC,[4],0.59 µg/mL
COc1ccc(/C=N/n2c(S)nnc2CNC(=O)c2ccc(C)cc2)cc1,MIC,Staphylococcus aureus,3.12 µg/mL
CC(C)=CCC/C(C)=C/COc1ccc(/C=C/c2nnc3c4ccccc4cnn23)cc1,MIC,[3],0.5 µg/mL
O=[N+]([O-])c1ccc(C2=Nn3c(nnc3-c3ccnc(F)c3)CC2)cc1,MIC,[5],0.25 µg/mL
same,IC50,[6],73.57 µg/mL
CC(C)C(C(=O)O)N1C(N)=NNC1c1ccccc1O (stereo unspecified),Ratio IC50,Leishmania major [7],36
same,IC50,Leishmania major [1],0.0312 µg/mL
same,Ratio IC50,Leishmania major [8],36
CCN(CC)c1ccc2cc(C(=O)NNC(=O)Cn3nc(Cc4ccc(Cl)c(Cl)c4)n(N)c3=O)c(=O)oc2c1,IC50,BT-20,3.1 µg/mL
same,IC50,DU-145,3.1 µg/mL
same,IC50,A549,3.1 µg/mL
same,IC50,[9],3.1 µg/mL
COc1ccc(-n2ncn(Cc3cn(Cc4cc(=O)oc5ccc(C(C)(C)C)cc45)nn3)c2=O)cc1,MIC,[10],1.6 µg/mL
same,Ratio,[11],2
Cc1ccc(C(=O)NCc2nnc(S)n2/N=C/c2ccc([N+](=O)[O-])cc2)cc1,MIC,Staphylococcus aureus,3.12 µg/mL
CC1CC(C)(C)CC(O)(c2nnc(-c3ccncc3)[nH]2)C1 (stereo unspecified),MIC,[4],0.59 µg/mL
Brc1ccc(/C=C/c2nnc3c4ccccc4cnn23)cc1,MIC,[3],0.5 µg/mL
O=[N+]([O-])c1ccc(C2=Nn3c(nnc3-c3ccc(Br)cc3)CC2)cc1,MIC,[5],0.25 µg/mL
same,IC50,[6],86.39 µg/mL
Nn1c(Cc2ccc(Cl)c(Cl)c2)nn(CC(=O)NNC(=O)c2cc3cc(Cl)ccc3oc2=O)c1=O,IC50,BT-20,3.1 µg/mL
same,IC50,DU-145,3.1 µg/mL
same,IC50,A549,3.1 µg/mL
same,IC50,[9],3.1 µg/mL
C#Cc1nnc2c3ccccc3cnn12,MIC,[3],0.5 µg/mL
CCCCCCCCCCCC(=O)OC1CCN(CC(O)(Cn2cncn2)c2ccc(F)cc2F)CC1 (stereo unspecified),MIC80,Candida albicans,9 nM
Cc1ccc2c(Cn3cc(Cn4cnn(-c5ccccc5)c4=O)nn3)cc(=O)oc2c1,MIC,[10],1.6 µg/mL
same,Ratio,[11],2
CC(C)SC1NN=C(/C=C/C=C/c2ccc3c(c2)OCO3)N1C1CCCCC1 (stereo unspecified),IC50,Trypanosoma cruzi [12],3.61 µM
same,IC50,Trypanosoma cruzi [13],3.18 µM
CCCCCCCCCCCCCCCCOP(=O)([O-])OCC[N+](C)(C)C [MILTEFOSINE],IC50,Leishmania major [1],3.19 µg/mL
CCCCCCCCCC(=O)OC1CCN(CC(O)(Cn2cncn2)c2ccc(F)cc2F)CC1 (stereo unspecified),MIC80,Candida albicans,9 nM
COc1ccc(-n2ncn(Cc3cn(Cc4cc(=O)oc5cc(C)ccc45)nn3)c2=O)cc1,MIC,[10],1.6 µg/mL
same,Ratio,[11],2
Clc1ccc(-c2nnc3sc(COc4ccc(Br)cc4)nn23)cc1,MIC,[5],6.82 µg/mL
same,IC50,[6],6.82 µg/mL
Cc1ccc(C(=O)NCc2nnc(S)n2/N=C/c2ccc(Cl)cc2)cc1,MIC,Staphylococcus aureus,3.12 µg/mL
COc1ccc(-n2ncn(Cc3cn(Cc4cc(=O)oc5ccc(C)cc45)nn3)c2=O)cc1,MIC,[10],1.6 µg/mL
same,Ratio,[11],2
CC(C)C(=O)OC1CCN(CC(O)(Cn2cncn2)c2ccc(F)cc2F)CC1 (stereo unspecified),MIC80,Candida albicans,9 nM
Cc1nn(-c2ccccc2)c(=O)n1-n1c(-c2cc3ccccc3oc2=O)cs/c1=N\c1ccc(Cl)cc1,IC50,MDA-MB-231,0.16 µg/mL
Cc1ccc(-n2nc(C)n(-n3c(-c4cc5ccccc5oc4=O)cs/c3=N\c3ccccc3)c2=O)cc1,IC50,MDA-MB-231,0.16 µg/mL
Cc1nn(-c2ccccc2)c(-n2cncn2)c1-c1cc(-c2ccccc2)cc2nc3ccccc3n12,IC50,"Plasmodium falciparum; Plasmodium falciparum, read-out: IC50",0.041 µg/mL
C=C(CCCC)C(=O)OC1CCN(CC(O)(Cn2cncn2)c2ccc(F)cc2F)CC1 (stereo unspecified),MIC80,Candida albicans,9 nM
O=C(CCl)OC1CCN(CC(O)(Cn2cncn2)c2ccc(F)cc2F)CC1 (stereo unspecified),MIC80,Candida albicans,9 nM
